Calls of active or inactive are those of the source.
Tests used:
[1] = biological target: UDP-galactopyranose mutase (Mycobacterium tuberculosis, UniProt P9WIQ1); experiment: Inhibitors of Mycobacterium tuberculosis UDP-galactopyranose mutase (UGM) enzyme Measured in Biochemical System Using Plate Reader - 2105-02_Inhibitor_Dose_CherryPick_Activity. [Related pubchem assays (depositor defined):AID504439]
[2] = biological target: T1, Oxysterols receptor LXR-beta (Homo sapiens, UniProt P55055); experiment: LXR agonists, Gal4 luciferase reporter, dose response, counter-screen for ssDAF-12 agonist project, cell-based, luminescence, HEK293, S. stercoralis campaign (AID 720737); format: functional; details: read-out: IC50 (the source's name)
T1 sequence (P55055 whole entry): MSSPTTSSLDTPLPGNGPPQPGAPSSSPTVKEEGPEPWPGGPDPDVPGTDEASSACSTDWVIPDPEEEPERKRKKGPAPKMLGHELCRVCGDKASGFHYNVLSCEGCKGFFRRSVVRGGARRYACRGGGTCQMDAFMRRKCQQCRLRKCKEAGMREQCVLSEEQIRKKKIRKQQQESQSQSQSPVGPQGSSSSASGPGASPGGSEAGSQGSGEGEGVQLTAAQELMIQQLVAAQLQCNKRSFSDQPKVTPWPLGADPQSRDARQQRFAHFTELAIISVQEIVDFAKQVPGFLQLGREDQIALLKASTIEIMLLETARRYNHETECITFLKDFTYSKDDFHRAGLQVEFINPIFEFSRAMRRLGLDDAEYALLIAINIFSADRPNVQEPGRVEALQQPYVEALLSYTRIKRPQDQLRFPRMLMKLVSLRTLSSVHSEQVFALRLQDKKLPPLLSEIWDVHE

[3] = Luminescence-based cell-based high throughput dose response assay to identify activators of the DAF-12 from the parasite S. stercoralis (ssDAF-12).; format: functional
Troponin, cardiac muscle = Troponin, cardiac muscle (Homo sapiens, UniProt P19429+P45379+P63316); experiment: Fluorescence-based biochemical high throughput dose response assay for activators of the calcium sensitivity of cardiac Regulated Thin Filaments (RTF). [Related pubchem assays (depositor defined):AID493008, AID493018, AID504382, AID504383]; format: protein-complex assay
[4] = biological target: T2, Endoribonuclease toxin MazF (Escherichia coli K-12, UniProt P0AE70); experiment: activation of MazEF endoribonuclease cleavage – biochemical, fluorescence, single-stranded RNA substrate, uHTS hits, dose response (AID 588481); format: functional
Keap1/Nrf2 = Keap1/Nrf2 (Homo sapiens, UniProt Q14145); experiment: disruptors of Keap1 binding to Nrf2 peptide – biochemical, fluorescence polarization, cherry-picked samples, dose response (AID 588683)
ORF 73 = ORF 73 (Human herpesvirus 8, UniProt O40947); experiment: KSHV LANA DNA-binding disruption – biochemical, fluorescence polarization, cherry-picked samples, dose response (AID 504725); parameters: species or system Human gammaherpesvirus 8;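 further: fluorescence polarization of a labeled DNA duplex reporting LANA DNA binding; potency is for inhibitors that block LANA binding to the DNA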
[5] = biological target: T2, Endoribonuclease toxin MazF; experiment: substrate-only fluorescence increase artefacts – biochemical, single-stranded RNase substrate, counter-screen for MazEF activator project, dose response (AID 588502); format: functional
Phospholipase D1 = Phospholipase D1 (Homo sapiens, UniProt Q13393); experiment: cellular phospholipase D1 inhibition IC50 – cell-based, dose response (AID 602151); format: functional;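 further: cellular PLD1 assay in Calu-1 cells stimulated with PMA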
[6] = biological target: T3, Sentrin-specific protease 7 (Homo sapiens, UniProt Q9BQF6); experiment: inhibition of human SENP7 cleavage activity – biochemical, luminescence, SAR follow-up (AID 504497); format: functional
T3 sequence (Q9BQF6 whole entry): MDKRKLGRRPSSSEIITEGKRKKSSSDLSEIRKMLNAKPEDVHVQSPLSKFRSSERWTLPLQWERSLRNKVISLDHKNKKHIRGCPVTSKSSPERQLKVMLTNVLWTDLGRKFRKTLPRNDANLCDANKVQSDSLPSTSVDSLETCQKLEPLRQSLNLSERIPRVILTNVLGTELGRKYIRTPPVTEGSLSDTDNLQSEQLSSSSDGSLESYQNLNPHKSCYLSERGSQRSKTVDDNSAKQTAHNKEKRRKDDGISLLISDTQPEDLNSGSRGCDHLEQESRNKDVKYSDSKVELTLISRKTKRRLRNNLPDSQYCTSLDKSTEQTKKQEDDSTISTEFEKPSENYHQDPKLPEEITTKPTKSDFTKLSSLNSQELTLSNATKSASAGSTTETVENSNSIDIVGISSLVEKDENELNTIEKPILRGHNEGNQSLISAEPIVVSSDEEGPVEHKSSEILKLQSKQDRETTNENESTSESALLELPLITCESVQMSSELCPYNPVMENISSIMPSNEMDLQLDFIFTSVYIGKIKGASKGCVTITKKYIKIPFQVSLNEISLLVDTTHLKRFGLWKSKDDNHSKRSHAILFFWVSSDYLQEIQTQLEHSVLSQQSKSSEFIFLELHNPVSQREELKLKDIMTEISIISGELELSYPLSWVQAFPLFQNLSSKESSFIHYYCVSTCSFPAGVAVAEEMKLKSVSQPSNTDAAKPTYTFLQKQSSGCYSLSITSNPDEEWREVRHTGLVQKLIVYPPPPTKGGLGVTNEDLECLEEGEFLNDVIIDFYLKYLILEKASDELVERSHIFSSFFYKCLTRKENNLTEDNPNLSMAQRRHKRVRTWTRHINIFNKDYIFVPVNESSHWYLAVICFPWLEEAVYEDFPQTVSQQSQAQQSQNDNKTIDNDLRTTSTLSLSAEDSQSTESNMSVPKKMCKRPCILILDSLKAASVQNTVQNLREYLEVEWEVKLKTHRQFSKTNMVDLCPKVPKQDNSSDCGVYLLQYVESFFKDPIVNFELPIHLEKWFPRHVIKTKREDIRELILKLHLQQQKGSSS

[7] = biological target: T4, Sentrin-specific protease 8 (Homo sapiens, UniProt Q96LD8); experiment: inhibition of sentrin protease 8 – biochemical, luminescence, set 2, SAR follow-up (AID 588601); format: functional
T4 sequence (Q96LD8 whole entry): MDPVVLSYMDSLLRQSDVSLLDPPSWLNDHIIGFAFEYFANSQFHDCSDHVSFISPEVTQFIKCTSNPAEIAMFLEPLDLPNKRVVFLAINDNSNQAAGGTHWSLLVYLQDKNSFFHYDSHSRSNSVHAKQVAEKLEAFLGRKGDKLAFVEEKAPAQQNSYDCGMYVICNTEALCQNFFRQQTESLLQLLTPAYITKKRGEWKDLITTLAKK

Caspase-3 [8] = biological target: T5, Caspase-3 (Homo sapiens, UniProt P42574); experiment: SAR Analysis of small molecule inhibitors of Sentrin-specific proteases (SENPs) using a Caspase-3 Selectivity assay. [Related pubchem assays (depositor defined):AID2540, AID2599, AID434973, AID489001]; format: functional
T5 sequence (P42574 whole entry): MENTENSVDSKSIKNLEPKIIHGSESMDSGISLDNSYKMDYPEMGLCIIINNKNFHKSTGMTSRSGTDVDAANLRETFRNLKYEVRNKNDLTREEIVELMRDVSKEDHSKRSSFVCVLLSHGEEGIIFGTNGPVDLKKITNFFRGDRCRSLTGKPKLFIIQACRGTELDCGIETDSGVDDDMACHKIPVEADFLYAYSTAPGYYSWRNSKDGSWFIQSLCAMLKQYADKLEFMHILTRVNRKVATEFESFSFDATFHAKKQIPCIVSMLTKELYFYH

[9] = biological target: T6, Sentrin-specific protease 6 (Homo sapiens, UniProt Q9GZR1); experiment: SAR Analysis of small molecule inhibitors of Sentrin-specific protease 6 (SENP6) using a Luminescent assay. [Related pubchem assays (depositor defined):AID2582, AID2599]; format: functional
T6 sequence (Q9GZR1 whole entry): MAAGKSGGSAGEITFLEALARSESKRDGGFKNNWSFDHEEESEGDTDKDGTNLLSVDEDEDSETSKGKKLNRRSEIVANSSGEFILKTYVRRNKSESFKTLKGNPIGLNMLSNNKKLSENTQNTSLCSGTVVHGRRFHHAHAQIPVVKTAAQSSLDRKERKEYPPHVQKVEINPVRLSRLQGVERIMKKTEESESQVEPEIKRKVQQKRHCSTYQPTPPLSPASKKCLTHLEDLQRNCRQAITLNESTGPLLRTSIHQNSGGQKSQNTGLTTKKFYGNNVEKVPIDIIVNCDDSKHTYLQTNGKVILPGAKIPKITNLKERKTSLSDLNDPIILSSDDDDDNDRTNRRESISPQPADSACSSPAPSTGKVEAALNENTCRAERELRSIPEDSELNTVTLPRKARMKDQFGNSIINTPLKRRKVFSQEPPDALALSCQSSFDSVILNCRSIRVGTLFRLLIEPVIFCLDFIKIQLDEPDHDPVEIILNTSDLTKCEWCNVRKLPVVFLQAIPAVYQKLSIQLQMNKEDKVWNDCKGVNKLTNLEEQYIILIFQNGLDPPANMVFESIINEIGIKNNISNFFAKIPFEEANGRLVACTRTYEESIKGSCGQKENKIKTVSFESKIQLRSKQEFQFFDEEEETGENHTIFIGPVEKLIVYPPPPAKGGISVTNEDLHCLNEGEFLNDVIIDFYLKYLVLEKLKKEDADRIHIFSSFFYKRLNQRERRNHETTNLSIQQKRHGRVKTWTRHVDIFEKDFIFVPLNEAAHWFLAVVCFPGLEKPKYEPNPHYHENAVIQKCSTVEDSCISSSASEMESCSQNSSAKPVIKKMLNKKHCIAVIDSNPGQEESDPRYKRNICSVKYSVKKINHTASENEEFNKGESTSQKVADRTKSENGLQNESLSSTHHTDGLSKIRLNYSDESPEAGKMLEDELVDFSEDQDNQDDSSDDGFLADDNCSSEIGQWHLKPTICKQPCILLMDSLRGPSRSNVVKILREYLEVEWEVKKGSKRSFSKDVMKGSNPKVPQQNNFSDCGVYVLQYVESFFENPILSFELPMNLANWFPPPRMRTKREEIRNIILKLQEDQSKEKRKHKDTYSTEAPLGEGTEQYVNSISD

[10] = biological target: T6, Sentrin-specific protease 6; experiment: inhibition of human SENP6 catalytic domain – biochemical, luminescence, set 2, SAR follow-up (AID 588598); format: functional
[11] = biological target: T4, Sentrin-specific protease 8; experiment: inhibition of human SENP8 cleavage activity – biochemical, luminescence, SAR follow-up (AID 504501); format: functional
Caspase-3 [12] = biological target: T5, Caspase-3; experiment: inhibition of recombinant caspase-3 activity – biochemical, luminescence, set 2, selectivity assay for SENP protease inhibitor project, SAR follow-up (AID 588599); format: functional
[13] = biological target: T3, Sentrin-specific protease 7; experiment: inhibition of human SENP7 cleavage activity – biochemical, luminescence, set 2, SAR follow-up (AID 588600); format: functional

T2 sequence (P0AE70 whole entry): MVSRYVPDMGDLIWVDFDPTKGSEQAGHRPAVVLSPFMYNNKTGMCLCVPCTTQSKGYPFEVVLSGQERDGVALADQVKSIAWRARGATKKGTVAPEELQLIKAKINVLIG
Sequence of Keap1/Nrf2 (Q16236 whole entry): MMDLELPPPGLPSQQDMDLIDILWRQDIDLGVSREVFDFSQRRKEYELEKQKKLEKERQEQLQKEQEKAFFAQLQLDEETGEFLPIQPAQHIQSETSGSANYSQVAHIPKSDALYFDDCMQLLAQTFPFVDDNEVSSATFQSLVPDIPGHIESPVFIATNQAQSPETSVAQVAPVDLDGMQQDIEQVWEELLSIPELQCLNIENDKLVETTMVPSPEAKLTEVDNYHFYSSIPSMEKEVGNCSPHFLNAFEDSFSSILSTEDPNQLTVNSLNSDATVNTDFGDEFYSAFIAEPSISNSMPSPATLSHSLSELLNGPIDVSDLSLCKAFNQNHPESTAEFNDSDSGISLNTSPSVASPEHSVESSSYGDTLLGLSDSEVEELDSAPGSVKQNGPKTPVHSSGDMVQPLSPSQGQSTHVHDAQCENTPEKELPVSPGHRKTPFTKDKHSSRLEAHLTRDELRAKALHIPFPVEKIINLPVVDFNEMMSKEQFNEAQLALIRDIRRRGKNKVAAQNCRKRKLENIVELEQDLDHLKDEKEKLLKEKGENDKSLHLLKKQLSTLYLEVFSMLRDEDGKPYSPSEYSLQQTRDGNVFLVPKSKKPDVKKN
Sequence of Keap1/Nrf2 (Q14145 whole entry): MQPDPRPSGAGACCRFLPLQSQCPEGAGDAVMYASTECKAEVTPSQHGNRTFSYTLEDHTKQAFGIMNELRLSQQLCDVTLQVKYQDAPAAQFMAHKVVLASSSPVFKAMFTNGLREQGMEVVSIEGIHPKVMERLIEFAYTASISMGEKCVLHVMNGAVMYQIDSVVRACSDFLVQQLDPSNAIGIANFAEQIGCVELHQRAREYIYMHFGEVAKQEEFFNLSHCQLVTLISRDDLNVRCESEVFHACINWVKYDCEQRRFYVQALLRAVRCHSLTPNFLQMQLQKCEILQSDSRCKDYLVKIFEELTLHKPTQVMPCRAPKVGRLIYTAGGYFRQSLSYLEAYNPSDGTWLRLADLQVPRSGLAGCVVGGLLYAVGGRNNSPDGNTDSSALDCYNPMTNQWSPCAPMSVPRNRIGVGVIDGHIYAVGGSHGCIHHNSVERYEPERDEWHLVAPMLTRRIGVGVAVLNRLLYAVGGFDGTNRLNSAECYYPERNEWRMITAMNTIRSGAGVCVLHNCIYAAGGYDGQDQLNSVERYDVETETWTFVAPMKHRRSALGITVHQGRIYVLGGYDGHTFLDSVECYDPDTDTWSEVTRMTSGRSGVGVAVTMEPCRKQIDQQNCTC
Sequence of Phospholipase D1 (Q13393 whole entry): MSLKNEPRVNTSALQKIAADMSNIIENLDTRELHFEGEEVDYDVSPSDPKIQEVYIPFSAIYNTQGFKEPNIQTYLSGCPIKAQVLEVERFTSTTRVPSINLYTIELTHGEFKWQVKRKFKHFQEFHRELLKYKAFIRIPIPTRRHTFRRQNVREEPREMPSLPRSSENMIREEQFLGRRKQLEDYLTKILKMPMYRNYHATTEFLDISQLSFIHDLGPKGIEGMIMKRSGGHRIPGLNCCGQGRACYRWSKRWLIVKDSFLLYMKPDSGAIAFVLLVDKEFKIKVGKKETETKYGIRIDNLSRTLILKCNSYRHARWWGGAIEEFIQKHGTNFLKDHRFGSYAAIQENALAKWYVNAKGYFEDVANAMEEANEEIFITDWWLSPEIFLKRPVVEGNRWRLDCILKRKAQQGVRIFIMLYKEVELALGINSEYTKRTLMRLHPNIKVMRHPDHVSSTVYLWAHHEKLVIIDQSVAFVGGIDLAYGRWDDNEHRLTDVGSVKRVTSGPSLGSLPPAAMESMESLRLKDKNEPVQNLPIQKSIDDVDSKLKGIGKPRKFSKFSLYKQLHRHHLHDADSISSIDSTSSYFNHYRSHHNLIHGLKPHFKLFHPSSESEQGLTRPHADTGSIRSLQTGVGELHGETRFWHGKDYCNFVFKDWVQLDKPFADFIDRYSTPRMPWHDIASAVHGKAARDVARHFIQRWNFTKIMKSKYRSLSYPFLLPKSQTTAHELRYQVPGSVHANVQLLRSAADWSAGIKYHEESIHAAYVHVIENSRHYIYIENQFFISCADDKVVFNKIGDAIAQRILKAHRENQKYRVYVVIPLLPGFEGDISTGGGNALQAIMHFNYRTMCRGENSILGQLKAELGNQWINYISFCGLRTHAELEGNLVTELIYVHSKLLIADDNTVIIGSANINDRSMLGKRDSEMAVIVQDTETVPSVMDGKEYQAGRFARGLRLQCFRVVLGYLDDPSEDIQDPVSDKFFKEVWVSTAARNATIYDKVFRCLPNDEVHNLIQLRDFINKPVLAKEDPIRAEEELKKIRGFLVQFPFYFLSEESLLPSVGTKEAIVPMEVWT
Sequence of UDP-galactopyranose mutase (P9WIQ1 whole entry, the tested form may be a part): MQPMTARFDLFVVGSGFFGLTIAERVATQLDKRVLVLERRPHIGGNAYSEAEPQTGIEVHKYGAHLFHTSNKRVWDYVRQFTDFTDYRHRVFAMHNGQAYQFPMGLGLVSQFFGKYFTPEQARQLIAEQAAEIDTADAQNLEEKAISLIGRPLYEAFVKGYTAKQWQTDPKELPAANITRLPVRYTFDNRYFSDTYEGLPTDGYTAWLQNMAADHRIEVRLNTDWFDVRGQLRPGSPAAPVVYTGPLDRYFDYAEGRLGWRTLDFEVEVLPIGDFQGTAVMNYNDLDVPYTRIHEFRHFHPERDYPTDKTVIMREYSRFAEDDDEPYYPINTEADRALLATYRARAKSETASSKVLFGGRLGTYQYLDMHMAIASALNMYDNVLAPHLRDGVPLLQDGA
Sequence of ORF 73 (O40947 whole entry): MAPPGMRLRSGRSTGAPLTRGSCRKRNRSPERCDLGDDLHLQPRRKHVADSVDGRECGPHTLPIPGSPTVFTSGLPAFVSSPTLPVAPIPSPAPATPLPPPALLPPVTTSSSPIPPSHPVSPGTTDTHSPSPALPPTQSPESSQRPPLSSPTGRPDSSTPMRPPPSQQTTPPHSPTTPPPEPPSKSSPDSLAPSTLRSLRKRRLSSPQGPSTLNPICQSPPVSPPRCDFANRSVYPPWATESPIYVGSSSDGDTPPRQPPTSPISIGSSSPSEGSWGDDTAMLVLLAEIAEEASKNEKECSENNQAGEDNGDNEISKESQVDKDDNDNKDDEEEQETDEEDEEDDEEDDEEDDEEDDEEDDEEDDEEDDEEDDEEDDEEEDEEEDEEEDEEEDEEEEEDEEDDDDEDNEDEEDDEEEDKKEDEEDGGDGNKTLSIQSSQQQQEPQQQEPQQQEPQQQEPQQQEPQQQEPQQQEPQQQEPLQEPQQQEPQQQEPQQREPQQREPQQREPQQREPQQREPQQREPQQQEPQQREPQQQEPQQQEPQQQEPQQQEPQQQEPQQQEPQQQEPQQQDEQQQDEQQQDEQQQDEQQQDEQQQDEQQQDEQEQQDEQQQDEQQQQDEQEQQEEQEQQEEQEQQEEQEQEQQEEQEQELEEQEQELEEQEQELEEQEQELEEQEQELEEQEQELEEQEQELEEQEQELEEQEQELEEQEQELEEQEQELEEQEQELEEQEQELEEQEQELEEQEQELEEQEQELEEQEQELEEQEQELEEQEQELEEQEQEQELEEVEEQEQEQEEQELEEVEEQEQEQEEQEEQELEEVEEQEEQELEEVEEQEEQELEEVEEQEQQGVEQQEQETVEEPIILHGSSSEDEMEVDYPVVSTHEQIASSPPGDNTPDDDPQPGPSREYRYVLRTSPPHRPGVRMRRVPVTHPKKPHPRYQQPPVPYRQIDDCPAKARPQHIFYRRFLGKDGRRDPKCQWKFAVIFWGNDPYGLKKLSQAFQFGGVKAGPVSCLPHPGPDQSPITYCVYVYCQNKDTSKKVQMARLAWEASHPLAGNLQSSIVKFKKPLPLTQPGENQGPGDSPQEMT

CN(N=Nc1ccc([N+](=O)[O-])cc1)c1ccccc1
AC50 [1]: 28.7 µM (active)
EC50 [2]: > 67.6 µM (inactive)
IC50 [3]: > 67.6 µM (inactive)
EC50 (Troponin, cardiac muscle): 5.61 µM (active)
EC50 [4]: > 99 µM (inactive)
AC50 (Keap1/Nrf2): 21.8 µM (active)
AC50 (ORF 73): 11.4 µM (active)
EC50 [5]: 31 µM (inactive)

O=C(NCCN1CC=C(n2c(=O)[nH]c3ccccc32)CC1)C1CC1c1ccccc1 (configuration not stated)
IC50 (Phospholipase D1): 0.2 µM (active)

Fc1cccc(F)c1-c1nc(/C=C/c2ccccc2)no1
IC50 [6]: 5.5 µM (active)
IC50 [7]: 6.98 µM (active)
IC50 (Caspase-3 [8]): 20 µM (active)
IC50 [9]: 14 µM (active)
IC50 [10]: 6.72 µM (active)
IC50 [11]: 15 µM (active)
IC50 (Caspase-3 [12]): 18 µM (active)
IC50 [13]: 8.02 µM (active)

Source: ChEMBL document CHEMBL1201862, “PubChem BioAssay data set” (2004)
